Measurements from ChEMBL document CHEMBL1201862, “PubChem BioAssay data set” (2004).
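1) Cells in 96-well plates. 2) Compound, 48 h, 5 concentrations. 3) Linear interpolation between surrounding doses. 4) Unreached endpoint = highest concentration. GI50 = concentration required for 50% inhibition of growth.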 Active and inactive are the calls of the source. Rule as the data show it: active = GI50 up to about 1.1 µM and inactive = higher.

Columns and labels:
Assay in all cases: NCI-60 cell line screen, 48 h
ACHN = tested on: ACHN
HL-60 = tested on: HL-60
HOP-92 = tested on: HOP-92
KM12 = tested on: KM12
MDA-MB-435 = tested on: MDA-MB-435
Malme-3M = tested on: Malme-3M
NCI-H226 = tested on: NCI-H226
NCI-H460 = tested on: NCI-H460
OVCAR-3 = tested on: OVCAR-3
SF-268 = tested on: SF-268
SF-295 = tested on: SF-295
SF-539 = tested on: SF-539
SK-MEL-5 = tested on: SK-MEL-5
SNB-19 = tested on: SNB-19
SNB-75 = tested on: SNB-75
SR = tested on: SR
U-251 = tested on: U-251
UO-31 = tested on: UO-31
SK-OV-3 = tested on: SK-OV-3

SMILES | GI50 (ACHN) | GI50 (HL-60) | GI50 (HOP-92) | GI50 (KM12) | GI50 (MDA-MB-435) | GI50 (Malme-3M) | GI50 (NCI-H226) | GI50 (NCI-H460) | GI50 (OVCAR-3) | GI50 (SF-268) | GI50 (SF-295) | GI50 (SF-539) | GI50 (SK-MEL-5) | GI50 (SNB-19) | GI50 (SNB-75) | GI50 (SR) | GI50 (U-251) | GI50 (UO-31) | GI50 (SK-OV-3)
Nc1ccc(Oc2ccc(C3(c4ccc(Oc5ccc(N)cc5)cc4)C4CC5CC(C4)CC3C5)cc2)cc1 | 7.8 µM (inactive) | 5 µM (inactive) | 11.5 µM (inactive) | 3.77 µM (inactive) | 8.05 µM (inactive) | 23.7 µM (inactive) | 19.9 µM (inactive) | 2.42 µM (inactive) | 0.353 µM (active) | 20.3 µM (inactive) | 6.76 µM (inactive) | 10.9 µM (inactive) | 14.4 µM (inactive) | 21.4 µM (inactive) | 54 µM (inactive) | 3.42 µM (inactive) | 0.231 µM (active) | 3.01 µM (inactive) | –
CSC(Cc1ccc2c(c1)Sc1ccccc1O2)=[N+]1CCOCC1 | 58.3 µM (inactive) | 37.9 µM (inactive) | 48.5 µM (inactive) | 51.4 µM (inactive) | 33 µM (inactive) | 26.4 µM (inactive) | 55.8 µM (inactive) | 48.2 µM (inactive) | 52.6 µM (inactive) | 61.2 µM (inactive) | 44.5 µM (inactive) | 74.6 µM (inactive) | – | 83.9 µM (inactive) | 32.4 µM (inactive) | 3.37 µM (inactive) | 48.1 µM (inactive) | 36.8 µM (inactive) | > 100 µM (inactive)
Oc1[nH]c(Nc2cccc(Cl)c2)nc2ncnc1-2 | > 100 µM (inactive) | 79.8 µM (inactive) | 83 µM (inactive) | > 100 µM (inactive) | 83.8 µM (inactive) | > 100 µM (inactive) | > 100 µM (inactive) | > 100 µM (inactive) | 48.4 µM (inactive) | > 100 µM (inactive) | > 100 µM (inactive) | 82.8 µM (inactive) | > 100 µM (inactive) | > 100 µM (inactive) | 30.5 µM (inactive) | > 100 µM (inactive) | > 100 µM (inactive) | > 100 µM (inactive) | > 100 µM (inactive)
O=C(Nc1nncs1)NS(=O)(=O)n1cnc2ccccc21 | > 100 µM (inactive) | > 100 µM (inactive) | > 100 µM (inactive) | > 100 µM (inactive) | > 100 µM (inactive) | > 100 µM (inactive) | > 100 µM (inactive) | > 100 µM (inactive) | > 100 µM (inactive) | > 100 µM (inactive) | > 100 µM (inactive) | > 100 µM (inactive) | > 100 µM (inactive) | > 100 µM (inactive) | > 100 µM (inactive) | > 100 µM (inactive) | > 100 µM (inactive) | – | > 100 µM (inactive)
CSc1nc2c(c(=O)n1C)N=C(c1ccccc1)[C@H](C(CC(=O)c1ccccc1)c1ccccc1)C(c1ccccc1)N2 (stereo partly specified) | > 100 µM (inactive) | 5.22 µM (inactive) | > 100 µM (inactive) | 14.7 µM (inactive) | > 100 µM (inactive) | > 100 µM (inactive) | > 100 µM (inactive) | 9.2 µM (inactive) | > 100 µM (inactive) | – | > 100 µM (inactive) | > 100 µM (inactive) | > 100 µM (inactive) | > 100 µM (inactive) | 3.12 µM (inactive) | > 100 µM (inactive) | > 100 µM (inactive) | 15 µM (inactive) | –
Cc1[nH]c2ncn(N)c(=N)c2c1Cc1ccccc1 | > 100 µM (inactive) | 17.8 µM (inactive) | 6.7 µM (inactive) | > 100 µM (inactive) | 34.6 µM (inactive) | 6.76 µM (inactive) | > 100 µM (inactive) | – | > 100 µM (inactive) | – | > 100 µM (inactive) | 58.2 µM (inactive) | 19.1 µM (inactive) | > 100 µM (inactive) | 42.7 µM (inactive) | > 100 µM (inactive) | > 100 µM (inactive) | 26.1 µM (inactive) | > 100 µM (inactive)
CC(C)C(=O)CP(=O)(O)O | > 100 µM (inactive) | > 100 µM (inactive) | > 100 µM (inactive) | > 100 µM (inactive) | > 100 µM (inactive) | > 100 µM (inactive) | > 100 µM (inactive) | > 100 µM (inactive) | > 100 µM (inactive) | > 100 µM (inactive) | > 100 µM (inactive) | > 100 µM (inactive) | > 100 µM (inactive) | > 100 µM (inactive) | > 100 µM (inactive) | > 100 µM (inactive) | > 100 µM (inactive) | – | > 100 µM (inactive)
CC(=O)O[C@H]1C(=O)[C@@]2(C)[C@H]([C@H](OC(=O)c3ccccc3)[C@]3(O)C[C@H](OC(=O)[C@H](O)[C@@H](NC(=O)c4ccoc4)c4ccccc4)C(C)=C1C3(C)C)[C@]1(OC(C)=O)CO[C@@H]1C[C@@H]2O | 0.37 µM (active) | 0.0136 µM (active) | 0.552 µM (active) | < 0.01 µM (active) | 0.0071 µM (active) | – | 0.0386 µM (active) | 0.023 µM (active) | < 0.01 µM (active) | 0.0325 µM (active) | < 0.01 µM (active) | 0.0292 µM (active) | 0.028 µM (active) | 0.0946 µM (active) | 0.0112 µM (active) | 0.0355 µM (active) | 0.00791 µM (active) | 3.39 µM (inactive) | 0.358 µM (active)
CCC12CCCN(Cc3ccccc3)C1c1c([nH]c3ccccc13)C(C(=O)OC)C2 (stereo unspecified) | > 10 µM (inactive) | 7.83 µM (inactive) | > 10 µM (inactive) | > 10 µM (inactive) | > 10 µM (inactive) | > 10 µM (inactive) | – | – | > 10 µM (inactive) | > 10 µM (inactive) | > 10 µM (inactive) | > 10 µM (inactive) | > 10 µM (inactive) | > 10 µM (inactive) | > 10 µM (inactive) | 7.64 µM (inactive) | > 10 µM (inactive) | – | > 10 µM (inactive)
Cc1ccc(/C=C2\N=C(N3CCCC(CO)C3)NC2=O)cc1 (stereo unspecified) | > 100 µM (inactive) | > 100 µM (inactive) | > 100 µM (inactive) | > 100 µM (inactive) | > 100 µM (inactive) | > 100 µM (inactive) | > 100 µM (inactive) | – | > 100 µM (inactive) | > 100 µM (inactive) | > 100 µM (inactive) | > 100 µM (inactive) | > 100 µM (inactive) | > 100 µM (inactive) | > 100 µM (inactive) | > 100 µM (inactive) | > 100 µM (inactive) | > 100 µM (inactive) | > 100 µM (inactive)
N#Cc1c(Nc2nc3ccccc3s2)c2ccccc2n2c1nc1ccccc12 | 79.8 µM (inactive) | > 100 µM (inactive) | > 100 µM (inactive) | > 100 µM (inactive) | > 100 µM (inactive) | > 100 µM (inactive) | – | > 100 µM (inactive) | > 100 µM (inactive) | > 100 µM (inactive) | 82 µM (inactive) | > 100 µM (inactive) | > 100 µM (inactive) | > 100 µM (inactive) | 24.5 µM (inactive) | > 100 µM (inactive) | 90.8 µM (inactive) | > 100 µM (inactive) | –
O=C1/C(=C\c2ccc([N+](=O)[O-])cc2)Sc2scc(-c3ccc(O)c(O)c3)[n+]21 | 6.82 µM (inactive) | 2.37 µM (inactive) | 6.4 µM (inactive) | 10.9 µM (inactive) | 9.75 µM (inactive) | – | 17.8 µM (inactive) | 4.06 µM (inactive) | 2.51 µM (inactive) | 4.94 µM (inactive) | 12.5 µM (inactive) | 5.02 µM (inactive) | 3.87 µM (inactive) | 21.6 µM (inactive) | 9.25 µM (inactive) | 2.62 µM (inactive) | 6.4 µM (inactive) | 4.72 µM (inactive) | 12.7 µM (inactive)
O=C(/C=C/c1ccc2c(c1)OCO2)c1ccc(O)cc1 | 20.2 µM (inactive) | 5.25 µM (inactive) | 14.5 µM (inactive) | – | 14.8 µM (inactive) | 15.3 µM (inactive) | 18.5 µM (inactive) | 15 µM (inactive) | 15.5 µM (inactive) | 45.9 µM (inactive) | 17.5 µM (inactive) | 17.4 µM (inactive) | 15.6 µM (inactive) | 16.8 µM (inactive) | 25.1 µM (inactive) | 1.17 µM (inactive) | 13.8 µM (inactive) | 13.4 µM (inactive) | 16.5 µM (inactive)
CCC(c1ccc(N(C)C)cc1)C1NC(=S)NC1=O (stereo unspecified) | > 100 µM (inactive) | 17.5 µM (inactive) | > 100 µM (inactive) | 62.7 µM (inactive) | 34.4 µM (inactive) | > 100 µM (inactive) | 87.3 µM (inactive) | > 100 µM (inactive) | – | > 100 µM (inactive) | 67.9 µM (inactive) | > 100 µM (inactive) | 37.8 µM (inactive) | > 100 µM (inactive) | 85.9 µM (inactive) | 8.11 µM (inactive) | 86.7 µM (inactive) | 96.8 µM (inactive) | > 100 µM (inactive)
Cc1ccc(C)c(COCCOCn2c(=O)[nH]c(=O)c3cc(Br)ccc32)c1 | > 100 µM (inactive) | > 100 µM (inactive) | > 100 µM (inactive) | > 100 µM (inactive) | > 100 µM (inactive) | 71.8 µM (inactive) | > 100 µM (inactive) | > 100 µM (inactive) | > 100 µM (inactive) | 52.6 µM (inactive) | > 100 µM (inactive) | 99.3 µM (inactive) | – | > 100 µM (inactive) | 46.6 µM (inactive) | > 100 µM (inactive) | > 100 µM (inactive) | > 100 µM (inactive) | > 100 µM (inactive)
